Here are results for three compounds from ChEMBL document CHEMBL1201862, “PubChem BioAssay data set” (2004).

For experiment [1], the target named is Ras and Rab interactor 1/Tyrosine-protein kinase ABL1 (Homo sapiens, UniProt P00519+Q13671). The format is functional.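 Also: biochemical TR-FRET dose-response test measuring inhibition of binding between Rin1 and Abl proteins.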
Experiment [2] has as its target Dual specificity protein phosphatase 3 (Homo sapiens, UniProt P51452). Nature of the experiment: VHR1 phosphatase inhibitors, biochemical (AID 1878).
The nature of experiment [3]: inhibitors of PGC1a acetylation in cells, dose response, cell-based, cherry-picked samples (AID 720514).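 Also: potency may reflect raised or lowered acetylation signal.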 The format is functional.
Experiment [4] deals with T1, Dual specificity protein phosphatase 6 (Rattus norvegicus, UniProt Q64346).
T1 sequence (Q64346 whole entry): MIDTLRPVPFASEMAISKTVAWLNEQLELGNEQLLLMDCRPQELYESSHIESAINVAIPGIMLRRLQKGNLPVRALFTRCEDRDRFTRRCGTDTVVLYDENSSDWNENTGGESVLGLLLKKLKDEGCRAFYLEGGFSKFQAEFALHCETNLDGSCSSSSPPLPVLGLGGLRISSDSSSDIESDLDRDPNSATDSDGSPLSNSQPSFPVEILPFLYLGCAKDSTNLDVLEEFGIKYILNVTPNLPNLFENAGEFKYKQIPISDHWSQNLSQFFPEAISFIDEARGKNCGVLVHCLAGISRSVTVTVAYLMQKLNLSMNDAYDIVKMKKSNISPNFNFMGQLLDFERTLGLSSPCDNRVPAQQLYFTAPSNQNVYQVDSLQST
As to the kind of experiment: MKP-3 phosphatase inhibitors, primary screen, biochemical, rat enzyme, in vitro (AID 425).

The target in experiment [5] is Protein kinase C gamma type (Homo sapiens, UniProt P05129). The format is functional.
The next experiment concerns Jurkat. As to the kind of experiment: antigen receptor-induced NF-kB inhibitors, dose response, Jurkat, luciferase reporter, luminescence, B- and T-cell (AID 489004).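 Also: NF-kB luciferase reporter Jurkat cells stimulated with PMA plus ionomycin.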 The conditions noted are these: Homo sapiens. The format is functional, cell-based.
The target in the next experiment is T2, Cytochrome P450 1A2 (Homo sapiens, UniProt P05177).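 Also: PubChem cytochrome P450 panel assay, CYP1A2 panel member.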
T2 sequence (P05177 whole entry): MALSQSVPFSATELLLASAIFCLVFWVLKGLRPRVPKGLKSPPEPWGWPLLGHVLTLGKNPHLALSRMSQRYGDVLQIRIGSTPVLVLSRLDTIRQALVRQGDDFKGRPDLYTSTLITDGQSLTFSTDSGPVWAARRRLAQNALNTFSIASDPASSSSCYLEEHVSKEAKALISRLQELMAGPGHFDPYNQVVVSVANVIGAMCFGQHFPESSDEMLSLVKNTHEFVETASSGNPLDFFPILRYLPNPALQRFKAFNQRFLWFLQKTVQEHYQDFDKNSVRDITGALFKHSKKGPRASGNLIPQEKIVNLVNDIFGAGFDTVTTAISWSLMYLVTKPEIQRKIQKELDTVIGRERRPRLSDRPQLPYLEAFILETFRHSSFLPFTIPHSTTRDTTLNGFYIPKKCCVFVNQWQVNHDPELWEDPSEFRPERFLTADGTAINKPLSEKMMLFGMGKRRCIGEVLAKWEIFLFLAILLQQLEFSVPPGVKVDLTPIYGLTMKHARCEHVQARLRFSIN

The structures appear in SMILES notation. The source made the active and inactive calls.

Sequence of Dual specificity protein phosphatase 3 (P51452 whole entry): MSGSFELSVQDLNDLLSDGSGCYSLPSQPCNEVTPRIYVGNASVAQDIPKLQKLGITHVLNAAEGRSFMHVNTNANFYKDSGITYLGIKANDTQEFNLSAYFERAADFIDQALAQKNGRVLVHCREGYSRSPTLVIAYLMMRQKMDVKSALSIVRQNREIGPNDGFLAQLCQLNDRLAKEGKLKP
Sequence of Ras and Rab interactor 1/Tyrosine-protein kinase ABL1 (P00519 whole entry): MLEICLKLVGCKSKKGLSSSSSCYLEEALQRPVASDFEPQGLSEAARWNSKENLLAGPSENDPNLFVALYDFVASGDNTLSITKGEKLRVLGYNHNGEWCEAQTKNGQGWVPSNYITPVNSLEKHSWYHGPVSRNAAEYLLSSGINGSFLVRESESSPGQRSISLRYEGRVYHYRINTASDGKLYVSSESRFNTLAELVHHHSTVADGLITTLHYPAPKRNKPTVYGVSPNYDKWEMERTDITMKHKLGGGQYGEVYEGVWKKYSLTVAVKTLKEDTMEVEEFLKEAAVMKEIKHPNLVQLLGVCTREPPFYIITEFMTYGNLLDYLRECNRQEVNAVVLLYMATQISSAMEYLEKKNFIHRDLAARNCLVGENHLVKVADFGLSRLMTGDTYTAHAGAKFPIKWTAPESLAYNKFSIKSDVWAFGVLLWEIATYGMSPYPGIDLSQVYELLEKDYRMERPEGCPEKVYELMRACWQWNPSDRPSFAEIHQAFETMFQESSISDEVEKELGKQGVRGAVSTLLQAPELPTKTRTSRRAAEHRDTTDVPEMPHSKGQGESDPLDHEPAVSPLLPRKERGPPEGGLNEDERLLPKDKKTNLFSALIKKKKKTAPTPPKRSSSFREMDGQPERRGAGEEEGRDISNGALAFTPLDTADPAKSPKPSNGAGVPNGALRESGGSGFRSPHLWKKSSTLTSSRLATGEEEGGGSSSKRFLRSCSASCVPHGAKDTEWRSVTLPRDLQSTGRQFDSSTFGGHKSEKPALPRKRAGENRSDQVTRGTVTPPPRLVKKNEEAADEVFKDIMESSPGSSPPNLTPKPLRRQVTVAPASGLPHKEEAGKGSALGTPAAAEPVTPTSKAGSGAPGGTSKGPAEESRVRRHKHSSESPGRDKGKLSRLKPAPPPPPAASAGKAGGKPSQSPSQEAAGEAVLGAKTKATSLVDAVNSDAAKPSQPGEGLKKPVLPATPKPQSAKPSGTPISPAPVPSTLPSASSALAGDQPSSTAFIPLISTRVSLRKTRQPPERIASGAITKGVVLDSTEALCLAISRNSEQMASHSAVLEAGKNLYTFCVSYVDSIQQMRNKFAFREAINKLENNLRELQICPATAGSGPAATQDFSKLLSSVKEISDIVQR
Sequence of Ras and Rab interactor 1/Tyrosine-protein kinase ABL1 (Q13671 whole entry): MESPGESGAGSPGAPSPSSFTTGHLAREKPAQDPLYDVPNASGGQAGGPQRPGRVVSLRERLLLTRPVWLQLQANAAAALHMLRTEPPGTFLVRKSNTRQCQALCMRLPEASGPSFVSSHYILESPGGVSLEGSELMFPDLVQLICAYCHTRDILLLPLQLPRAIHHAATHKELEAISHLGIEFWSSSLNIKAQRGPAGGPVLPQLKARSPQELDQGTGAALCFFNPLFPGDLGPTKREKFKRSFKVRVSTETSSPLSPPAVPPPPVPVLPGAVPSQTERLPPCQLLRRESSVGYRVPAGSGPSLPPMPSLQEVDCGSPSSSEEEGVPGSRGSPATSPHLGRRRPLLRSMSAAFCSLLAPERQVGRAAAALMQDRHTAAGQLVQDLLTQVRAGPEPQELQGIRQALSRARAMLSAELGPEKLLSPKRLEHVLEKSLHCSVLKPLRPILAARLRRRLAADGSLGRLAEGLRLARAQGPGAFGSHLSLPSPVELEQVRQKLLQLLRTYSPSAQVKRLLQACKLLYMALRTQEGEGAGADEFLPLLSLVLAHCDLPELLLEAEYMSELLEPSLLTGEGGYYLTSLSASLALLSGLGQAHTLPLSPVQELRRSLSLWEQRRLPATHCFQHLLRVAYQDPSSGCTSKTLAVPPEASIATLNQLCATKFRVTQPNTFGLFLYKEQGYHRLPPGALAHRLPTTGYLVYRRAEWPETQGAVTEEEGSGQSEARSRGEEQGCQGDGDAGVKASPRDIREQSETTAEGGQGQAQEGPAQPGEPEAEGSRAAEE

Take `CCn1nc(/C=C/c2ccccc2)nc2c(=O)n(C)c(=O)nc1-2`: the figures for the IC50 in experiment [1], in experiment [2] and in experiment [4] were > 73500 nM (inactive), 106000 nM (inactive) and < 1230 nM (not active), respectively. In addition, the AC50 in experiment [3] is 2870 nM (active).

In the case of `COc1cc2c(cc1Nc1nc(Nc3cccc(F)c3C(N)=O)c3cc[nH]c3n1)N(C(=O)CN(C)C)CC2`, the Ki in experiment [5] was 1000 nM (active).

For `CC(C)c1ccc(-c2nnn(CCC(=O)O)n2)cc1`, the IC50 in the experiment with Jurkat is < 160 nM (active). Also, the AC50 on Cytochrome P450 1A2 was 12600 nM (inconclusive).
